Measured values reported in publication PMC3914206.

Tests used:
[1] = target: T1, panel of 442 kinases (Homo sapiens, UniProt Q6ZN16); format: binding; settings: Compound Concentration 10 µM
T1 construct: purchased KINOMEscan
T1 sequence (Q6ZN16 1-1313): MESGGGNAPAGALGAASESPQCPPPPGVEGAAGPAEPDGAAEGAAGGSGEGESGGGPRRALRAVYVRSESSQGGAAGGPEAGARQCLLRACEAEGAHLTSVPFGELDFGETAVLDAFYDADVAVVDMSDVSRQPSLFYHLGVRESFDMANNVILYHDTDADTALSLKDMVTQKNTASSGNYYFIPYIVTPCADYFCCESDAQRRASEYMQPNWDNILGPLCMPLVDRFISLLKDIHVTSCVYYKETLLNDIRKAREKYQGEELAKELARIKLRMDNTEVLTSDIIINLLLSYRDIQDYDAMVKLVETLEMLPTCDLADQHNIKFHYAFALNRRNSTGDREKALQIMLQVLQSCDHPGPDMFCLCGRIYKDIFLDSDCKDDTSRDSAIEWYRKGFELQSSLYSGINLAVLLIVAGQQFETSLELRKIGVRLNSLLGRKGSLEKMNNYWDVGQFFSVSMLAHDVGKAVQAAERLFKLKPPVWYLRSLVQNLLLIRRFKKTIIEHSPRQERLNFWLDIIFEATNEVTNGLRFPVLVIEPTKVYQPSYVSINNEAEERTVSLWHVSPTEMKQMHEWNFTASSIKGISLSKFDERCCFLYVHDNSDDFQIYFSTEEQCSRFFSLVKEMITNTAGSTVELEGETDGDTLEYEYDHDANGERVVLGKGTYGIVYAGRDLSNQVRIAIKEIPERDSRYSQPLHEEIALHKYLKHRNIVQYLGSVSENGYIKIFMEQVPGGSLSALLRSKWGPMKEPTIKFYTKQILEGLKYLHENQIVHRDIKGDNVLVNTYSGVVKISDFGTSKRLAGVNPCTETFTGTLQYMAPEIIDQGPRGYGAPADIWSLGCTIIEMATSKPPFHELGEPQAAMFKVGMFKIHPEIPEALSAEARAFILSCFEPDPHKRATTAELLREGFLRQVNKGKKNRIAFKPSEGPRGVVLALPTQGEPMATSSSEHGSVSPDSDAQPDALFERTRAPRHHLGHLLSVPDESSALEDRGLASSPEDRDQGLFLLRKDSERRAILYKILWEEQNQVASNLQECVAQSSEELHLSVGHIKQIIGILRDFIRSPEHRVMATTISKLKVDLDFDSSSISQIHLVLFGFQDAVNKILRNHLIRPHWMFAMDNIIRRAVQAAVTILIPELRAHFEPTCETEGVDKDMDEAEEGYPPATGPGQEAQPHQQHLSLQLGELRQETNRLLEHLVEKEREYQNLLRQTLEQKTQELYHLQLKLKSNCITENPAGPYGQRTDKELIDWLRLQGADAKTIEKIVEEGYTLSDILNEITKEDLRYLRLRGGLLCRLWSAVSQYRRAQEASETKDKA
Source text: (§1) We assessed the selectivity of members of this scaffold using the KINOMEscan methodology across a near comprehensive panel of 442 kinases [[18,27]].

[2] = target: T2, panel of 442 kinases (Homo sapiens, UniProt Q9UEE5); format: binding; settings: Compound Concentration 10 µM
T2 construct: purchased KINOMEscan
T2 sequence (Q9UEE5 1-414): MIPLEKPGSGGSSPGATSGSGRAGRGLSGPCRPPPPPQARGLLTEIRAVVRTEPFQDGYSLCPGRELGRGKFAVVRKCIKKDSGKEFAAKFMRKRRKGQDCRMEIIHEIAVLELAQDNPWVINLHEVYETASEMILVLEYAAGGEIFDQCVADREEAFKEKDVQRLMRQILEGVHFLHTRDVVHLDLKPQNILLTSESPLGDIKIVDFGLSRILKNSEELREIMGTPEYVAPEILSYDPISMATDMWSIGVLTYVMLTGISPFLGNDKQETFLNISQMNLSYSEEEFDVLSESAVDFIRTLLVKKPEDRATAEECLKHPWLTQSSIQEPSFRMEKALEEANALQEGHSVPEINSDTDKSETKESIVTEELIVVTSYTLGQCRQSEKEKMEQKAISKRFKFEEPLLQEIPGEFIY
Source text: as §1

Compound | KINOMEscan: MAP3K15 [1] | KINOMEscan: DRAK1 [2]
COc1cc(C(=O)N2CCC(N3CCN(C)CC3)CC2)ccc1Nc1ncc2c(n1)N(C)c1ccccc1C(=O)N2C [15 (LRRK2-IN-1)] | 69 | 100
COc1cc(C(=O)N2CCC(N3CCN(C)CC3)CC2)ccc1Nc1ncc2c(n1)N1CCc3cccc(c31)C(=O)N2C [Compound 24] | 77 | 
COc1cc(C(=O)N2CCC(N3CCN(C)CC3)CC2)ccc1Nc1ncc2c(n1)N(C1CCCC1)c1ccccc1C(=O)N2C [Compound 25, 11-cyclopentyl-2-((2-methoxy-4-(4-(4-methylpiperazin-1-yl)piperidine-1-carbonyl)phenyl)amino)-5-methyl-5H-benzo[e]pyrimido[5,4-b][1,4]diazepin-6(11H)-one] | 88 | 100
CCOc1cc(C(=O)N2CCC(N3CCN(C)CC3)CC2)ccc1Nc1ncc2c(n1)N(C1CCCC1)c1ccccc1C(=O)N2C [Compound 26] | 95 | 100
